This is an account of results in patent US20090318468A1, “PYRAZOLE COMPOUNDS 436” (AstraZeneca AB, priority 2008, published 2009).

Data set [1] in a line: Protein binding by equilibrium dialysis (human). The conditions noted are these: 20 μM compound, 10% plasma, 37° C., read-out: % free (protein binding). The class given is in vitro ADME. On the procedure:
(§1) Protein binding is determined by equilibrium dialysis. A 20 μM concentration of compound is dialyzed against 10% plasma at a temperature of 37° C. for 18 h. The resulting samples are analyzed using generic HPLC-UV methodology coupled with mass spectral peak identification. The reported K1 value is the first apparent association constant [proteináligand]/([protein][ligand]), all concentrations being measured in moles/liter (J. Med. Chem., 2006, 49(23), 6672-6682).
(§2) Protein binding can be measured in a high-throughput screen by equilibrium dialysis combined with liquid chromatography and mass spectrometry (Wan, H. and Rehngren, M., J. Chromatogr. A 2006, 1102, 125-134).
(In general: Equilibrium dialysis compares concentrations on both sides of a semipermeable membrane.)

For data set [2], the target named is T1, human cytochrome P450 (CYP) 2D6 (Homo sapiens, UniProt P10635).
T1 construct: made in house; host or cells: yeast (microsomal fraction)
T1 sequence (P10635 whole entry): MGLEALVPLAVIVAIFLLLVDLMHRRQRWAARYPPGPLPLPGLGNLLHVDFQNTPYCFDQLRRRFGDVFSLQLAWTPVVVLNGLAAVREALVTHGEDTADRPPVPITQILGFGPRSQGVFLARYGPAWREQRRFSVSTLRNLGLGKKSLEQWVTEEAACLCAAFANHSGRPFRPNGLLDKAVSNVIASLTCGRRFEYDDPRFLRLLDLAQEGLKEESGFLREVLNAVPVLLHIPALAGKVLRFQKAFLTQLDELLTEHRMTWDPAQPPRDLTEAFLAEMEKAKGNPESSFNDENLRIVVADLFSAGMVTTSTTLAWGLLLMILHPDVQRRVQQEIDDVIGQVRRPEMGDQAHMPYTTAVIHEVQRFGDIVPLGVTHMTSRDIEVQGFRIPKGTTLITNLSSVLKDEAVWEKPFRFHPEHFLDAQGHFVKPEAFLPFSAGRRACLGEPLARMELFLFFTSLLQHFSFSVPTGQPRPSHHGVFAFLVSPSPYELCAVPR
Description: Cytochrome P450 Inhibition Assay, CYP 2D6. The class given is in vitro ADME. Particulars: test compound 0.1-10 μM, substrate MAMC. As for the experimental part:
(§3) Cytochrome P450 Inhibition Assay
The inhibitory potential (IC50) of test compounds against 5 human cytochrome P450 (CYP) isoforms (1A2, 2C9, 2C19, 3A4 and 2D6) was assessed using an automated fluorescent end point in vitro assay modified from Crespi (Crespi and Stresser, J Pharmacol Toxicol Methods 2000, 44: 325-331). Microsomal subcellular fractions prepared from Yeast cell lines expressing each human CYP isoform were used as an enzyme source in this assay. The activity of the 5 major human CYPs was determined from the biotransformation of a number of coumarin substrates to fluorescent metabolites, in the presence of NADPH. […] Stock solutions of each CYP, with its respective substrate, were prepared in phosphate buffer pH 7.4 (see Table 1) and 178 μl was added to the well of a black solid, flat bottom, 300 μl 96 well microtitre plate (Corning Costar). […] The appropriate solvent controls and substrate blanks were included in each experiment to assess control activity and identify any inherent fluorescence due to the test compounds. […] The plates were read on a fluorimeter (Spectrafluor Plus) at the appropriate excitation and emission wavelengths (listed in Table 2) and the percent activity, corrected for control, was plotted against the test compound concentration.

The target of data set [3] is T2, human cytochrome P450 (CYP) 2C9 (Homo sapiens, UniProt P11712).
T2 construct: made in house; host or cells: yeast (microsomal fraction)
T2 sequence (P11712 whole entry): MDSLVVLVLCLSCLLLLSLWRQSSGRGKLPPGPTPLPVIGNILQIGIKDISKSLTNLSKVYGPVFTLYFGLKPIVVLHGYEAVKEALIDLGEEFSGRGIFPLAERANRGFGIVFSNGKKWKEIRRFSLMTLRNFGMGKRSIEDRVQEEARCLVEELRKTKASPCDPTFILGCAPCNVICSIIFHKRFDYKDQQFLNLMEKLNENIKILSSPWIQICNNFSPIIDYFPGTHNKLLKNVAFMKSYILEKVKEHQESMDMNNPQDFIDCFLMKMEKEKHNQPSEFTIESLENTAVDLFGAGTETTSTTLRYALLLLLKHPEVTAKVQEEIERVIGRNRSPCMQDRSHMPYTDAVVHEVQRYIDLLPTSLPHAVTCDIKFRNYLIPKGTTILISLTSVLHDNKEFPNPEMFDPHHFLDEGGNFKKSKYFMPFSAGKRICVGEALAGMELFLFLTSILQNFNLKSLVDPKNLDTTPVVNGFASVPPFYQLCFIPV
Put plainly: Cytochrome P450 Inhibition Assay, CYP 2C9. The conditions noted are these: test compound 0.1-10 μM, substrate MFC. The class given is in vitro ADME. On the procedure:
as §3
Microsomal subcellular fractions prepared from Yeast cell lines expressing each human CYP isoform were used as an enzyme source in this assay. The activity of the 5 major human CYPs was determined from the biotransformation of a number of coumarin substrates to fluorescent metabolites, in the presence of NADPH. […] Stock solutions of each CYP, with its respective substrate, were prepared in phosphate buffer pH 7.4 (see Table 1) and 178 μl was added to the well of a black solid, flat bottom, 300 μl 96 well microtitre plate (Corning Costar). […] After pre-incubating at 37° C. for 5 min the reactions were started with addition of NADPH (20 μl, concentration shown in Table 1). The final solvent content in each incubation was <=2% (1% from the test compound and a maximum of 1% from the substrate). The appropriate solvent controls and substrate blanks were included in each experiment to assess control activity and identify any inherent fluorescence due to the test compounds. In addition, known inhibitors of each CYP were included as positive controls (see Table 3 for inhibitor concentrations and expected IC50 ranges). […] The plates were read on a fluorimeter (Spectrafluor Plus) at the appropriate excitation and emission wavelengths (listed in Table 2) and the percent activity, corrected for control, was plotted against the test compound concentration.

Data set [4] is described as follows: Protein binding by equilibrium dialysis (rat). The class given is in vitro ADME. Particulars: 20 μM compound, 10% plasma, 37° C., read-out: % free (protein binding). On the procedure:
as §1, §2

A short description of data set [5]: Clearance (pharmacokinetics) in rats. The class given is in vivo. Particulars: rat, whole blood, male rats, dose 0.927 mg/kg (2 umol/kg); for Vd: read-out: Vss. On the procedure: For the rat dose of 0.927 mg/kg (2 umol/kg), the compounds were formulated in 20% DMA:80% sorensens buffer pH 5 at 1 umol/ml. Each formulation was dosed (2 mL/kg) to four male rats (250-300 g) which had free access to food. Blood samples were taken via the tail vein at 5 and 20 minutes, and 1 and 4 hours post dose from 2 rats, and at 10 and 40 minutes, and 2 and 6 hours from the other 2 rats. Terminal samples were taken at 12 hours from the first pair of rats and 24 hours from the second pair. The blood samples were diluted 1:1 with water prior to analysis.
A set of 10 calibration standards covering the concentration range (0.001 umol/L to 10 umol/L) were prepared by spiking blank matrix (1:1 blood:water). The samples and standards were extracted using a solid phase extraction plate, blown down under nitrogen, and then reconstituted in methanol:water (20:80). The samples were analysed using LC-MSMS and the results obtained were used to determine the area under the curve from time 0 to infinity [AUC0-inf (ug.hr/ml)], clearance [Cl (ml/min/kg)] and the steady state volume distribution [Vss (L/kg)] for each compound.

One may read the IC50 as the concentration needed to halve the response being measured. Usually AUC(0-inf) stands for the area under the concentration-time curve extrapolated to infinity. As usually defined, the clearance is a measure of how efficiently the substance is removed, as volume per time.

For `COc1cc(CCc2cc(NC(=O)c3ccc(N4CCN(C)[C@@H](C)C4)cc3)[nH]n2)cc(OC)c1` [Example 1a, (S)—N-(3-(3,5-Dimethoxyphenethyl)-1H-pyrazol-5-yl)-4-(3,4-dimethylpiperazin-1-yl)benzamide], the fraction unbound at 18 h, 20 μM in data set [1] is 0.0372. The molecule further displayed a 50% inhibitory concentration (IC50) in data set [2] of more than 10 µM. The half-maximal inhibitory concentration (IC50) in data set [3] is 3.76 µM. The fraction unbound at 18 h, 20 μM in data set [4] was 0.0091. For the same molecule, in data set [5], the AUC(0-inf) was determined as 254 ng·h/mL, the clearance was 60.9 mL/min/kg and the Vd stood at 2.58 L/kg.

In the case of `COc1cc(CCc2cc(NC(=O)c3ccc(N4CCN(C)[C@H](C)C4)cc3)[nH]n2)cc(OC)c1` [Example 1b, (R)—N-(3-(3,5-Dimethoxyphenethyl)-1H-pyrazol-5-yl)-4-(3,4-dimethylpiperazin-1-yl)benzamide], in data set [1], the fraction unbound at 18 h, 20 μM amounted to 0.0279. Further, in data set [2], the IC50 is more than 10 µM. Further, half-maximal inhibition in data set [3] (IC50) required 9.12 µM. Further, in data set [4], the fraction unbound at 18 h, 20 μM is 0.0062. In data set [5], the total exposure AUC(0-inf) stood at 473 ng·h/mL, the clearance came out at 32.7 mL/min/kg and the Vd amounted to 1.74 L/kg.
